Measured values as given in patent publication US8269000B2, “Substituted pyrimidine and triazine compounds” (Gruenenthal GmbH, priority 2008, dated 2012).
Where a name gives a salt, the structure may show the parent alone.

Key:
rat B1R = target: T1, rat B1R (Rattus norvegicus, UniProt P97583); experiment: FLIPR Ca2+ functional study on bradykinin receptor 1 (rB1R CHO K1 cells); format: cell-based; settings: for inhibition at 10 µM: CHO-K1, % inhibition rat B1R at 10 μM, read-out: % inh. (rat B1R) 10 μM; for % inh. (rat B1R) 10 μM: % inhibition rat B1R at 10 μM
T1 construct: expressed in transfected cells; host or cells: CHO K1 cells
T1 sequence (P97583 1-337): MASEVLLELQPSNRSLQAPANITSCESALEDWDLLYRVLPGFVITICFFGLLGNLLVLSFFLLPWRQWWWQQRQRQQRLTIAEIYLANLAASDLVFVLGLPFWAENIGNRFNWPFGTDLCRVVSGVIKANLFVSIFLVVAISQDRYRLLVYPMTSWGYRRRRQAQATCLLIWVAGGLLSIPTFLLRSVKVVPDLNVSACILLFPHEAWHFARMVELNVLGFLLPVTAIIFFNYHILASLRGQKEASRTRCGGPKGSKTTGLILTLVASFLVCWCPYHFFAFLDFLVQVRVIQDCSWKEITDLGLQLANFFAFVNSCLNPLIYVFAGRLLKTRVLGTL
How it was run: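 Antagonism was calculated as % of maximal inhibition of the Ca2+ rise triggered by agonist at EC80 (Lys-Des-Arg9-bradykinin for hB1R, Des-Arg9-bradykinin for rB1R), added 10-20 min after test compound (10 μM or serial dilutions for IC50) to Fluo-4-loaded transfected CHO K1 cells on FLIPR. Duplicates or triplicates, ≥2 independent runs.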

human B1R = target: T2, human B1R (Homo sapiens, UniProt P46663); experiment: FLIPR Ca2+ functional study on bradykinin receptor 1 (hB1R CHO K1 cells); format: cell-based; settings: % inhibition human B1R at 10 μM, read-out: % inh. (hum. B1R) 10 μM
T2 construct: expressed in transfected cells; host or cells: CHO K1 cells
T2 sequence (P46663 1-353): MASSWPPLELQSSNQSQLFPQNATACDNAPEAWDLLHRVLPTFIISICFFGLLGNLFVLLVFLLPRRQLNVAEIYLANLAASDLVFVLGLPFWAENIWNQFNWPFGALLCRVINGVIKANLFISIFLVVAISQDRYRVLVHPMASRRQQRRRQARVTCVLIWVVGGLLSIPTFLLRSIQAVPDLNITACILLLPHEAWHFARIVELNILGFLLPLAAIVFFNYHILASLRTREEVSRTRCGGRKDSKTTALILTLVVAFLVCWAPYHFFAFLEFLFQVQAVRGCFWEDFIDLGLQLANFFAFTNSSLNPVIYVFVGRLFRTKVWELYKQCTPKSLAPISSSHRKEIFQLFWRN
Description: The agonistic or antagonistic activity of substances can be quantified on the bradykinin receptor 1 (B1R) of the species human and rat using ectopically expressing cell lines (CHO K1 cells) and with the aid of a Ca^2+-sensitive dye (Fluo-4) using a fluorescent imaging plate reader (FLIPR). The indication in % activation is based on the Ca^2+ signal after addition of Lys-Des-Arg^9-bradykinin (0.5 nM) or Des-Arg^9-bradykinin (100 nM). Antagonists lead to suppression of the Ca^2+ influx after the addition of the agonist. % Inhibition compared with the maximum achievable inhibition is indicated.
The agonistic or antagonistic activity of substances can be determined on the bradykinin receptor 1 (B1R) of the species human and rat using the following assay. According to this assay, the Ca^2+ influx through the channel is quantified with the aid of a Ca^2+-sensitive dye (Fluo-4 type, Molecular Probes Europe BV, Leiden, Netherlands) using a Fluorescent Imaging Plate Reader (FLIPR, Molecular Devices, Sunnyvale, USA).
Chinese hamster ovary cells (CHO K1 cells) which have been stably transfected with the human B1R gene (hB1R cells) or with the B1R gene of the rat (rB1R cells) are used. For functional studies, the cells are plated out on black 96-well plates having a clear base (BD Biosciences, Heidelberg, Germany or Greiner, Frickenhausen, Germany) in a density of 20,000-35,000 cells/well. The cells are left overnight at 37° C. and with 5% CO2 in culture medium (hB1R cells: Nutrient Mixture Ham's F12, Gibco Invitrogen GmbH, Karlsruhe, Germany or DMEM, Sigma-Aldrich, Taufkirchen, Germany; rB1R cells: D-MEM/F12, Gibco Invitrogen GmbH, Karlsruhe, Germany), with 10 vol.% FBS (fetal bovine serum, Gibco Invitrogen GmbH, Karlsruhe, Germany or PAN Biotech GmbH, Aidenbach, Germany). On the following day, the cells are loaded for 60 minutes at 37° C. with 2.13 μM Fluo-4 (Molecular Probes Europe BV, Leiden, Netherlands) in HBSS buffer (Hank's buffered saline solution, Gibco Invitrogen GmbH, Karlsruhe, Germany) […] (Sigma-Aldrich, Taufkirchen, Germany) and 10 mM HEPES (Sigma-Aldrich, Taufkirchen, Germany). The plates are then washed twice with HBSS buffer, and HBSS buffer additionally containing 0.1% BSA (bovine serum albumin; Sigma-Aldrich, Taufkirchen, Germany), 5.6 mM glucose and 0.05% gelatin (Merck KGaA, Darmstadt, Germany) is added to the plates. After incubation for a further 20 minutes at room temperature, the plates are inserted into the FLIPR for Ca^2+ measurement. Alternatively, washing is carried out with buffer A (15 mM HEPES, 80 mM NaCl, 5 mM KCl, 1.2 mM CaCl2, 0.7 mM MgSO4, 2 g/l glucose, 2.5 mM probenecid) followed by loading with buffer A with added 2.5 μM Fluo-4 and 0.025% Pluronic F127 (Sigma-Aldrich, Taufkirchen, Germany). The cells are then washed twice with buffer A and incubated for 30 minutes at room temperature with buffer A additionally containing 0.05% BSA and 0.05% gelatin and are then inserted into the FLIPR for Ca^2+ measurement. The Ca^2+-dependent fluorescence is measured before and after the addition of substances (λex=488 nm, λem=540 nm). Quantification is carried out by measuring the highest fluorescence intensity (FC, fluorescence counts) over time.
The FLIPR protocol consists of two substance additions. Test substances (10 μM) are first pipetted onto the cells and the Ca^2+ influx is compared with the control (hB1R: Lys-Des-Arg^9-bradykinin>=50 nM; rB1R: Des-Arg^9-bradykinin 10 μM). This gives the activation in %, based on the Ca^2+ signal after addition of Lys-Des-Arg^9-bradykinin (>=50 nM) or Des-Arg^9-bradykinin (10 μM). After 10-20 minutes' incubation, Lys-Des-Arg^9-bradykinin (hB1R) or Des-Arg^9-bradykinin (rB1R) is applied in the concentration of the EC80, and the influx of Ca^2+ is likewise determined. Antagonists lead to suppression of the Ca^2+ influx. The % inhibition compared with the maximum achievable inhibition is calculated. […]

Compound: COc1cc(C)c(S(=O)(=O)N(C)CCOc2nccc(N3CCC(CCN4CCCC4)CC3)n2)c(C)c1 [Example G-001, 4-methoxy-N,2,6-trimethyl-N-[2-[[4-[4-(2-1-pyrrolidinylethyl)-1-piperidinyl]-2-pyrimidinyl]oxy]ethyl]benzenesulfonamide]
- inhibition at 10 µM (rat B1R): 99%
- inhibition at 10 µM (human B1R): 84%

Compound: COc1cc(C)c(S(=O)(=O)N(C)CCOc2nccc(N3CCN(c4ccncc4)CC3)n2)c(C)c1 [Example G-002, 4-methoxy-N,2,6-trimethyl-N-[2-[[4-[4-(4-pyridyl)-1-piperazinyl]-2-pyrimidinyl]oxy]ethyl]benzenesulfonamide]
- inhibition at 10 µM (rat B1R): 109%
- inhibition at 10 µM (human B1R): 97%

Compound: COc1cc(C)c(S(=O)(=O)N(C)CCOc2nccc(N(C)CCN3CCC(c4ccccc4)(N(C)C)CC3)n2)c(C)c1 [Example G-003, N-[2-[[4-[2-(4-dimethylamino-4-phenyl-1-piperidinyl)ethyl-methylamino]-2-pyrimidinyl]oxy]ethyl]-4-methoxy-N,2,6-trimethylbenzenesulfonamide]
- % inh. (rat B1R) 10 μM (rat B1R; 10 µM): 112%
- inhibition at 10 µM (human B1R): 101%

Compound: COc1cc(C)c(S(=O)(=O)N2CCCCC2COc2nccc(N3CCC(OCCN4CCCC4)(c4cccnc4)CC3)n2)c(C)c1 (centres unmarked) [Example G-004, 2-[[1-(4-methoxy-2,6-dimethylphenyl)sulfonyl-2-piperidinyl]methoxy]-4-[4-(3-pyridyl)-4-(2-1-pyrrolidinylethoxy)-1-piperidinyl]pyrimidine]
- inhibition at 10 µM (rat B1R): 73%
- inhibition at 10 µM (human B1R): 99%

Compound: COc1cc(C)c(S(=O)(=O)N(CCOc2nccc(N3CCC4(CCN(c5ccncc5)CC4)CC3)n2)C2CC2)c(C)c1 [Example G-005, N-cyclopropyl-4-methoxy-2,6-dimethyl-N-[2-[[4-[9-(4-pyridyl)-3,9-diazaspiro[5.5]undecan-3-yl]-2-pyrimidinyl]oxy]ethyl]benzenesulfonamide hydrochloride]
- inhibition at 10 µM (rat B1R): 96%
- inhibition at 10 µM (human B1R): 99%

Compound: COc1cc(C)c(S(=O)(=O)N(CCOc2nccc(NCCC3CCN(c4ccncc4)CC3)n2)C2CC2)c(C)c1 [Example G-006, N-cyclopropyl-4-methoxy-2,6-dimethyl-N-[2-[[4-[2-[1-(4-pyridyl)-4-piperidinyl]ethylamino]-2-pyrimidinyl]oxy]ethyl]benzenesulfonamide]
- inhibition at 10 µM (rat B1R): 94%
- inhibition at 10 µM (human B1R): 99%

Compound: COc1cc(C)c(S(=O)(=O)N(CCOc2nccc(N3CCC(OCCN4CCCC4)(c4cccnc4)CC3)n2)C2CC2)c(C)c1 [Example G-007, N-cyclopropyl-4-methoxy-2,6-dimethyl-N-[2-[[4-[4-(3-pyridyl)-4-(2-1-pyrrolidinylethoxy)-1-piperidinyl]-2-pyrimidinyl]oxy]ethyl]benzenesulfonamide]
- inhibition at 10 µM (rat B1R): 97%
- inhibition at 10 µM (human B1R): 100%

Compound: COc1cc(C)c(S(=O)(=O)N(CCOc2nccc(N3CCC(O)(c4cccnc4)CC3)n2)C2CC2)c(C)c1 [Example G-008, N-cyclopropyl-N-[2-[[4-[4-hydroxy-4-(3-pyridyl)-1-piperidinyl]-2-pyrimidinyl]oxy]ethyl]-4-methoxy-2,6-dimethylbenzenesulfonamide]
- inhibition at 10 µM (rat B1R): 98%
- inhibition at 10 µM (human B1R): 77%

Compound: Cc1cccc(Cl)c1S(=O)(=O)N(CCOc1nccc(N2CCC3(CCN(c4ccncc4)CC3)CC2)n1)C1CC1 [Example G-009, 2-chloro-N-cyclopropyl-6-methyl-N-[2-[[4-[9-(4-pyridyl)-3,9-diazaspiro[5.5]undecan-3-yl]-2-pyrimidinyl]oxy]ethyl]benzenesulfonamide]
- inhibition at 10 µM (rat B1R): 91%
- inhibition at 10 µM (human B1R): 97%

Compound: O=S(=O)(c1ccccc1C(F)(F)F)N(CCOc1nccc(N2CCC3(CCN(c4ccncc4)CC3)CC2)n1)C1CC1 [Example G-010, N-cyclopropyl-N-[2-[[4-[9-(4-pyridyl)-3,9-diazaspiro[5.5]undecan-3-yl]-2-pyrimidinyl]oxy]ethyl]-2-(trifluoromethyl)benzenesulfonamide]
- inhibition at 10 µM (rat B1R): 89%
- inhibition at 10 µM (human B1R): 98%

Compound: COc1cc(C)c(S(=O)(=O)N2C[C@H](F)C[C@H]2COc2nccc(N3CCC4(CCN(c5ccncc5)CC4)CC3)n2)c(C)c1 [Example G-011, 3-[2-[[(2S,4R)-4-fluoro-1-(4-methoxy-2,6-dimethylphenyl)sulfonyl-2-pyrrolidinyl]methoxy]-4-pyrimidinyl]-9-(4-pyridyl)-3,9-diazaspiro[5.5]undecane]
- inhibition at 10 µM (rat B1R): 99%
- inhibition at 10 µM (human B1R): 99%

Compound: COc1cc(C)c(S(=O)(=O)N(CCOc2nccc(N3CCC(Oc4ccncc4)CC3)n2)C2CC2)c(C)c1 [Example G-012, N-cyclopropyl-4-methoxy-2,6-dimethyl-N-[2-[[4-[4-(4-pyridyloxy)-1-piperidinyl]-2-pyrimidinyl]oxy]ethyl]benzenesulfonamide]
- inhibition at 10 µM (rat B1R): 97%
- inhibition at 10 µM (human B1R): 99%

Compound: COc1cc(C)c(S(=O)(=O)N(C)C(COc2ccnc(N3[C@@H]4CC[C@H]3CC(Oc3ccncc3)C4)n2)c2ccccc2)c(C)c1 (stereo partly drawn) [H_CC-093, 4-methoxy-N,2,6-trimethyl-N-[1-phenyl-2-[2-[(1S,5R)-3-pyridin-4-yloxy-8-azabicyclo[3.2.1]octan-8-yl]-pyrimidin-4-yl]oxy-ethyl]-benzenesulfonic acid amide]
- inhibition at 10 µM (rat B1R): 63%

Compound: (1S,5R)-8-[4-[[(2S)-1-[(4-methoxy-2,6-dimethyl-phenyl)sulfonyl]-pyrrolidin-2-yl]-methoxy]-pyrimidin-2-yl]-3-pyridin-4-yloxy-8-azabicyclo[3.2.1]octane [H_CC-052]
- % inh. (rat B1R) 10 μM (rat B1R): 72%
